Data: US7964624B1, “Inhibitors of serine proteases” (priority 2005, dated 2011)

Biological target: T1, HCV NS3 protease domain (Hepatitis C virus genotype 1b, UniProt Q9WMX2)
T1 construct: The first 181 amino acids of NS3 (residues 1027-1207 of the viral polyprotein); hexa-histidine (C); made in house; host or cells: E. coli BL21/DE3 pLysS
Assay: biochemical
Conditions: Enzyme Assay 1 (HCV NS3 Protease Domain Peptide Cleavage Assay) activity, apparent Ki class

T1 sequence (Q9WMX2 1027-1207, other chains not shown): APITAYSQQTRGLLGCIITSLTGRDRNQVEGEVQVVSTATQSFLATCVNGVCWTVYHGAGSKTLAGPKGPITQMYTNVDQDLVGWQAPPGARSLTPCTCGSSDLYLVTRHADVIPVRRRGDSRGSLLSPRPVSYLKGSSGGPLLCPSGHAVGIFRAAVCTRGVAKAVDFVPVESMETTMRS

| Compound | Ki [nM] |
| --- | --- |
| CCC[C@H](NC(=O)[C@@H]1C[C@]2(CC(c3cccc(Cl)c3)=NO2)CN1C(=O)[C@@H](NC(=O)Cc1cccc(OC)c1)C(C)(C)C)C(=O)C(=O)NC1CC1 [Compound 287] | 100 to 500 |
| CCC[C@H](NC(=O)[C@@H]1C[C@]2(CC(c3ccccc3)=NO2)CN1C(=O)[C@@H](NC(=O)Nc1cccc2ccccc12)C(C)(C)C)C(=O)C(=O)NC1CC1 [Compound 288] | 100 to 500 |
| CCC[C@H](NC(=O)[C@@H]1C[C@]2(CC(c3cccc(Cl)c3)=NO2)CN1C(=O)[C@@H](NC(=O)N1CCC2(CC1)CC(=O)c1ccccc12)C(C)(C)C)C(=O)C(=O)NC1CC1 [Compound 291] | > 500 |
| CCC[C@H](NC(=O)[C@@H]1C[C@]2(CC(c3cccc(Cl)c3)=NO2)CN1C(=O)[C@@H](NC(=O)CC1CCCCC1)C(C)(C)C)C(=O)C(=O)NC1CC1 [Compound 294] | 100 to 500 |
| CCC[C@H](NC(=O)[C@@H]1C[C@]2(CC(c3ccc(Cl)cc3)=NO2)CN1C(=O)[C@@H](NC(=O)CC1CCOCC1)C(C)(C)C)C(=O)C(=O)NC1CC1 [Compound 299] | > 500 |
| CCC[C@H](NC(=O)[C@@H]1C[C@]2(CC(c3ccc(F)c(Cl)c3)=NO2)CN1C(=O)[C@@H](NC(=O)O[C@H]1CCOC1)C(C)(C)C)C(=O)C(=O)NC1CC1 [Compound 301] | 100 to 500 |
| CCC[C@H](NC(=O)[C@@H]1C[C@]2(CC(c3cccnc3)=NO2)CN1C(=O)[C@@H](NC(=O)CC1CCCCC1)C(C)(C)C)C(=O)C(=O)NC1CC1 [Compound 303] | > 500 |
| CCC[C@H](NC(=O)[C@@H]1C[C@]2(CC(c3cccc(Cl)c3)=NO2)CN1C(=O)[C@@H](NC(=O)OCC1CCCCO1)C(C)(C)C)C(=O)C(=O)NC1CC1 (stereo partly drawn) [Compound 308] | 100 to 500 |
| CCC[C@H](NC(=O)[C@@H]1C[C@]2(CC(c3cccc(Cl)c3)=NO2)CN1C(=O)[C@@H](NC(=O)C1CCCCC1C(=O)N1CCCC1)C(C)(C)C)C(=O)C(=O)NC1CC1 (stereo partly drawn) [Compound 311] | > 500 |
| CCC[C@H](NC(=O)[C@@H]1C[C@]2(CC(c3cc(Cl)c(OC)cc3OC)=NO2)CN1C(=O)NCc1ccccc1)C(=O)C(=O)NC1CC1 [Compound 313] | > 500 |
| CCC[C@H](NC(=O)[C@@H]1C[C@]2(CC(c3cccc(Cl)c3)=NO2)CN1C(=O)[C@@H](NC(=O)C(C)N1Cc2ccccc2C1=O)C(C)(C)C)C(=O)C(=O)NC1CC1 (stereo partly drawn) [Compound 317] | > 500 |
| CCC[C@H](NC(=O)[C@@H]1C[C@]2(CC(c3cccc(Cl)c3)=NO2)CN1C(=O)[C@@H](NC(=O)CC(C)(C)C)C(C)(C)C)C(=O)C(=O)NC1CC1 [Compound 319] | 100 to 500 |
| CCC[C@H](NC(=O)[C@@H]1C[C@]2(CC(c3ccc(Cl)c(Cl)c3)=NO2)CN1C(=O)[C@@H](NC(=O)CC1CCCCC1)C(C)(C)C)C(=O)C(=O)NC1CC1 [Compound 323] | 100 to 500 |
| CCC[C@H](NC(=O)[C@@H]1C[C@]2(CC(c3cccc(Cl)c3)=NO2)CN1C(=O)[C@@H](NC(=O)c1cccc([C@@H](C)C#N)c1)C(C)(C)C)C(=O)C(=O)NC1CC1 [Compound 324] | > 500 |
| CCC[C@H](NC(=O)[C@@H]1C[C@]2(CC(c3cc(C(F)(F)F)cc(C(F)(F)F)c3)=NO2)CN1C(=O)[C@@H](NC(=O)O[C@H]1CCOC1)C(C)(C)C)C(=O)C(=O)NC1CC1 [Compound 330] | 100 to 500 |
| CCC[C@H](NC(=O)[C@@H]1C[C@]2(CC(c3ccc(F)cc3)=NO2)CN1C(=O)[C@@H](NC(C)=O)C(C)(C)C)C(=O)C(=O)NC1CC1 [Compound 331] | > 500 |
| CCC[C@H](NC(=O)[C@@H]1C[C@]2(CC(c3cccc(Cl)c3)=NO2)CN1C(=O)[C@@H](NC(=O)N[C@@H](C)c1ccccc1)C(C)(C)C)C(=O)C(=O)NC1CC1 [Compound 333] | 100 to 500 |
| CCC[C@H](NC(=O)[C@@H]1C[C@]2(CC(c3cccc(Cl)c3)=NO2)CN1C(=O)[C@@H](NC(=O)[C@@H](C)Cc1ccccc1)C(C)(C)C)C(=O)C(=O)NC1CC1 [Compound 334] | > 500 |
| CCC[C@H](NC(=O)[C@@H]1C[C@]2(CC(c3ccc(OC)cc3OC)=NO2)CN1C(=O)[C@@H](NC(=O)OCc1ccccc1)C(C)(C)C)C(=O)C(=O)NC1CC1 [Compound 335] | > 500 |
| CCC[C@H](NC(=O)[C@@H]1C[C@]2(CC(C(=O)NCc3ccccc3)=NO2)CN1C(=O)[C@@H](NC(=O)O[C@H]1CCOC1)C(C)(C)C)C(=O)C(=O)NC1CC1 [Compound 341] | > 500 |
| CCC[C@H](NC(=O)[C@@H]1C[C@]2(CC(c3cccc(Cl)c3)=NO2)CN1C(=O)[C@@H](Nc1ncc(C)cc1[N+](=O)[O-])C(C)(C)C)C(=O)C(=O)NC1CC1 [Compound 345] | > 500 |
| CCC[C@H](NC(=O)[C@@H]1C[C@]2(CC(c3cc(F)cc(C(F)(F)F)c3)=NO2)CN1C(=O)O[C@H]1CCOC1)C(=O)C(=O)NC1CC1 [Compound 348] | > 500 |
| CCC[C@H](NC(=O)[C@@H]1C[C@]2(CC(c3cccc(Cl)c3)=NO2)CN1C(=O)[C@@H](NC(=O)CC1CCCCC1)C(C)(C)C)C(=O)C(=O)Nc1cccc(C(C)=O)c1 [Compound 355] | > 500 |
| CCC[C@H](NC(=O)[C@@H]1C[C@]2(CC(c3cccc(Cl)c3)=NO2)CN1C(=O)[C@@H](NC(=O)OCc1ccncc1)C(C)(C)C)C(=O)C(=O)NC1CC1 [Compound 357] | 100 to 500 |

| Compound | Ki [nM] |
| --- | --- |
| C=C[C@@H]1C[C@]1(NC(=O)[C@@H]1C[C@]2(CC(c3cccc(Cl)c3)=NO2)CN1C(=O)[C@@H](NC(=O)CC1CCOCC1)C(C)(C)C)C(=O)NS(=O)(=O)C1CC1 [Compound 359] | 100 to 500 |
| CCC[C@H](NC(=O)[C@@H]1C[C@]2(CC(c3cccc(Cl)c3)=NO2)CN1C(=O)[C@@H](NC(=O)CC1CCCCCC1)C(C)(C)C)C(=O)C(=O)NC1CC1 [Compound 360] | > 500 |
| CCC[C@H](NC(=O)[C@@H]1C[C@]2(CC(C(=O)c3ccc(Cl)cc3)=NO2)CN1C(=O)[C@@H](NC(=O)O[C@H]1CCOC1)C(C)(C)C)C(=O)C(=O)NC1CC1 [Compound 364] | > 500 |
| CCC[C@H](NC(=O)[C@@H]1C[C@]2(CC(c3ccccc3)=NO2)CN1C(=O)NCc1cc(OC)c(OC)c(OC)c1)C(=O)C(=O)NC1CC1 [Compound 367] | > 500 |
| CCC[C@H](NC(=O)[C@@H]1C[C@]2(CC(c3ccc(OC)cc3OC)=NO2)CN1C(=O)OCC1c2ccccc2-c2ccccc21)C(=O)C(=O)NC1CC1 [Compound 371] | 100 to 500 |
| CCC[C@H](NC(=O)[C@@H]1C[C@]2(CC(c3cccc(Cl)c3)=NO2)CN1C(=O)[C@@H](NC(=O)OCCCc1ccccn1)C(C)(C)C)C(=O)C(=O)NC1CC1 [Compound 373] | 100 to 500 |
| CCC[C@H](NC(=O)[C@@H]1C[C@]2(CC(c3cccc(Cl)c3)=NO2)CN1C(=O)[C@@H](NC(=O)OC1CCOCC1)C(C)(C)C)C(=O)C(=O)NC1CC1 [Compound 374] | 100 to 500 |
| CCC[C@H](NC(=O)[C@@H]1C[C@]2(CC(c3ccc4c(c3)OCO4)=NO2)CN1C(=O)[C@@H](NC(=O)CC1CCOCC1)C(C)(C)C)C(=O)C(N)=O [Compound 375] | > 500 |
| CCC[C@H](NC(=O)[C@@H]1C[C@]2(CC(c3cccc(Cl)c3)=NO2)CN1C(=O)[C@@H](NC(=O)OCc1ccccn1)C(C)(C)C)C(=O)C(=O)NC1CC1 [Compound 378] | 100 to 500 |
| CCC[C@H](NC(=O)[C@@H]1C[C@]2(CC(c3cccc(Cl)c3)=NO2)CN1C(=O)[C@@H](NC(=O)NC(C)C)C(C)(C)C)C(=O)C(=O)NC1CC1 [Compound 379] | < 100 |
| CCC[C@H](NC(=O)[C@@H]1C[C@]2(CC(c3cccc(Cl)c3)=NO2)CN1C(=O)[C@@H](NC(=O)c1n[nH]c(=O)c2ccccc12)C(C)(C)C)C(=O)C(=O)NC1CC1 [Compound 381] | 100 to 500 |
| CCC[C@H](NC(=O)[C@@H]1C[C@]2(CC(CC)=NO2)CN1C(=O)[C@@H](NC(=O)OCc1ccccc1)C(C)(C)C)C(=O)C(=O)NC1CC1 [Compound 383] | > 500 |
| CCC[C@H](NC(=O)[C@@H]1C[C@]2(CC(c3ccc(C)cc3)=NO2)CN1C(=O)[C@@H](NC(=O)O[C@H]1CCOC1)C(C)(C)C)C(=O)C(=O)NC1CC1 [Compound 385] | > 500 |
| CCC[C@H](NC(=O)[C@@H]1C[C@]2(CC(c3cccc(Cl)c3)=NO2)CN1C(=O)[C@@H](NC(=O)O[C@H]1CO[C@H]2OCC[C@H]21)C(C)(C)C)C(=O)C(=O)NC1CC1 [Compound 387] | 100 to 500 |
| CCC[C@H](NC(=O)[C@@H]1C[C@]2(CC(c3cccc(Cl)c3)=NO2)CN1C(=O)[C@@H](NC(=O)OCCCc1cccnc1)C(C)(C)C)C(=O)C(=O)NC1CC1 [Compound 389] | > 500 |
| CCC[C@H](NC(=O)[C@@H]1C[C@]2(CC(c3cccc(Cl)c3)=NO2)CN1C(=O)[C@@H](NC(=O)CC(C)(C)O)C(C)(C)C)C(=O)C(=O)NC1CC1 [Compound 392] | 100 to 500 |
| CCC[C@H](NC(=O)[C@@H]1C[C@]2(CC(c3cccc(Cl)c3)=NO2)CN1C(=O)[C@@H](NC(=O)C(F)c1ccccc1)C(C)(C)C)C(=O)C(=O)NC1CC1 (stereo partly drawn) [Compound 393] | 100 to 500 |
| CCCC1=NO[C@]2(C1)C[C@@H](C(=O)N[C@@H](CCC)C(=O)C(=O)NC1CC1)N(C(=O)[C@@H](NC(=O)[C@@H](NC(=O)c1cnccn1)C1CCCCC1)C(C)(C)C)C2 [Compound 400] | < 100 |
| CCC[C@H](NC(=O)[C@@H]1C[C@]2(CC(c3cccc(Cl)c3)=NO2)CN1C(=O)[C@@H](NC(=O)CC1=C(c2cccs2)CCC1=O)C(C)(C)C)C(=O)C(=O)NC1CC1 [Compound 402] | 100 to 500 |
| CCC[C@H](NC(=O)[C@@H]1C[C@]2(CC(c3ccc(C(C)C)cc3)=NO2)CN1C(=O)O[C@H]1CCOC1)C(=O)C(=O)NC1CC1 [Compound 405] | > 500 |
| CCC[C@H](NC(=O)[C@@H]1C[C@]2(CC(c3cccc(Cl)c3)=NO2)CN1C(=O)[C@@H](NC(=O)OCC)C(C)(C)C)C(=O)C(=O)NC1CC1 [Compound 407] | 100 to 500 |
| CCC[C@H](NC(=O)[C@@H]1C[C@]2(CC(c3ccc(F)c(C)c3)=NO2)CN1C(=O)O[C@H]1CCOC1)C(=O)C(=O)NC1CC1 [Compound 413] | > 500 |
| CCC[C@H](NC(=O)[C@@H]1C[C@]2(CC(c3cc(F)c(F)c(F)c3)=NO2)CN1C(=O)O[C@H]1CCOC1)C(=O)C(=O)NC1CC1 [Compound 414] | > 500 |
| CC(C)(C)[C@H](NC(=O)OCc1ccccc1)C(=O)N1C[C@@]2(CC(c3ccc4c(c3)OCO4)=NO2)C[C@H]1C(=O)NC(CC1CCC1)C(=O)C(N)=O (stereo partly drawn) [Compound 415] | 100 to 500 |
